Records with an inconclusive call do not appear. Active and inactive are the calls of the source.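 Rule for the calls: active = Green signal of the normal strain falls at least twice as much as red signal of the resistant mutant, with overall culture growth loss under a set limit; inconclusive = no clear call, values can overlap the other calls; inactive = the rest.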
Test system: E. coli WT ribosome GFP fluorescence, mixed culture, 24 h
Experiment: growth inhibition of wild-type GFP E. coli, dose response, h38 mutant RFP, cherry-pick (AID 977622)
[1] = E. coli mixed culture, 24 h, measured here: total growth OD600

With `NS(=O)(=O)c1cccc(NC(=O)c2cccc(-c3ccc(O)cc3)c2)c1` the AC50 was > 100 µM (inactive) and the AC50 [1] was 50.2 µM.
With `Cc1ccc(CNS(=O)(=O)c2ccc3c(c2)NC(=O)CS3)cc1` the AC50 was > 100 µM (inactive) and the AC50 [1] was 41 µM.
For `COc1ccc(Cl)cc1C(=O)OCC(=O)c1ccc[nH]1`, the AC50 was > 100 µM (inactive).
For `CCCn1c(=O)c2ccccc2n2c(SCCOc3ccc(OC)cc3)nnc12`, the AC50 was > 100 µM (inactive).
For `CSc1c(-c2ccccn2)c(N)nn1C(=O)C1CC1`, the AC50 was > 100 µM (inactive).
With `Cc1ccsc1C(=O)OCC(=O)N1CCc2ccccc2C1` the AC50 was > 100 µM (inactive) and the AC50 [1] was over 100 µM.
With `Cc1n[nH]c(C)c1S(=O)(=O)N1CCCC(C(=O)Nc2ccc(Br)cc2)C1` (stereo not drawn) the AC50 [1] was over 100 µM.
With `Cc1ccc(-c2c[n+](CC(=O)OCc3ccccc3)c3n2CCC3)cc1` the AC50 was > 100 µM (inactive).
`Cc1cc(C(=O)NCCC2=CCCCC2)ccc1[N+](=O)[O-]` was tested, and the AC50 was > 100 µM (inactive) and the AC50 [1] was over 100 µM.
`Cc1ccc(C(=O)c2coc3cc([N+](=O)[O-])c(O)c([N+](=O)[O-])c23)cc1` was tested, and the AC50 was > 100 µM (inactive) and the AC50 [1] was 21.5 µM.
In the case of `CCOc1ccccc1N1CC(C(=O)Nc2cccc(S(=O)(=O)N3CCCCC3)c2)CC1=O` (stereo not drawn), the AC50 [1] is reported as over 100 µM.
For `CC(=O)Oc1c(Cl)cc(N(C(C)=O)S(=O)(=O)c2ccccc2)c2ccccc12`, the AC50 was > 100 µM (inactive) and the AC50 [1] was 47.2 µM.
With `CC(=O)N1CCOc2ccc(S(=O)(=O)N(C)c3ccc(C)cc3)cc21` the AC50 was > 100 µM (inactive).
In the case of `CC(C)N1CC2(CC(c3ccccc3C(F)(F)F)=NO2)CN1C(=O)c1ccco1` (stereo not drawn), the AC50 is reported as > 100 µM (inactive) and the AC50 [1] is reported as over 100 µM.
For `COc1cc(C(N)=O)cc(Br)c1OCc1ccccc1`, the AC50 was > 100 µM (inactive).
With `Cc1ccc(C(=O)Nc2ccc(C)c(S(=O)(=O)Nc3ccccc3Cl)c2)s1` the AC50 was > 100 µM (inactive) and the AC50 [1] was 43.1 µM.
For `O=c1[nH]c(C2CCCN(S(=O)(=O)c3ccccc3Cl)C2)nc2c1nnn2Cc1ccc2c(c1)OCCO2` (stereo not drawn), the AC50 was > 100 µM (inactive).
`O=C(CCCOc1ccc(Cl)cc1Cl)Nc1ccccc1C(=O)O` was tested, and the AC50 was > 100 µM (inactive).
In the case of `CCN(CC)CCN(C(=O)c1ccccc1OC)c1nc2ccc(F)cc2s1`, the AC50 is reported as > 100 µM (inactive) and the AC50 [1] is reported as over 100 µM.
`Nc1[nH]c(C(=O)c2ccccc2)c(-c2ccc(Cl)cc2)c1C(=O)NCCc1c[nH]c2ccccc12` was tested, and the AC50 [1] was over 100 µM.
`CCc1ccc(CN2CCCC(CNS(=O)(=O)c3ccc(OC)cc3)C2)cc1` (stereo not drawn) gave an AC50 [1] of over 100 µM.
With `CCOC(=O)c1c(CS(=O)(=O)c2ccccc2)n(C)c2cc(Br)c(O)cc12` the AC50 was > 100 µM (inactive).
`CN(Cc1ccc([N+](=O)[O-])cc1)c1ccccc1` gave an AC50 [1] of over 100 µM.
`CCCN(CC(=O)Nc1ccccc1C)C(=O)c1cccc(S(=O)(=O)N2CCc3ccccc3C2)c1` was tested, and the AC50 was > 100 µM (inactive).
With `CCCCNC(=O)C[C@@H]1C[C@@]2(C(=O)OC)CCCCC=C2N(Cc2ccccc2)C1=O` the AC50 was > 100 µM (inactive) and the AC50 [1] was over 100 µM.
`O=C(NCCc1ccccc1)c1cccc(NC(=O)c2ccccc2)c1` was tested, and the AC50 was > 100 µM (inactive).
In the case of `O=C(C[C@@H]1CC[C@H]2[C@@H](COC[C@H](O)CN2C(=O)Nc2cc(Cl)cc(Cl)c2)O1)N1CCOCC1`, the AC50 is reported as > 100 µM (inactive).
For `C[C@@H]1CN([C@H](C)CO)C(=O)CCCn2nncc2CO[C@@H]1CN(C)C(=O)Nc1ccc(C(F)(F)F)cc1`, the AC50 was > 100 µM (inactive).
In the case of `Cc1cc(C)cc(NC(=O)c2cccc(NC(=O)C3C4CC5OC(=O)C3C5C4)c2)c1` (stereo not drawn), the AC50 is reported as > 100 µM (inactive).
`O=C(CSc1nnc(COc2cccc3cccnc23)o1)c1ccc(F)cc1` gave an AC50 [1] of over 100 µM.
In the case of `O=C(Nc1cccc(S(=O)(=O)N2CCCCC2)c1)c1ccc(Cl)nc1`, the AC50 is reported as > 100 µM (inactive).
Work on `COC(=O)c1ccc(CCc2cc(O)c(Br)cc2O)cc1` yielded an AC50 [1] of 46.5 µM.
With `C[C@@H]1CN([C@@H](C)CO)C(=O)c2cc(NC(=O)C3CC3)ccc2O[C@H]1CN(C)C(=O)Nc1ccc(C(F)(F)F)cc1` the AC50 was > 100 µM (inactive).
With `O=C(CCNC(=O)c1ccco1)Nc1cccc(Br)c1` the AC50 was > 100 µM (inactive) and the AC50 [1] was over 100 µM.
Compound `CCC(C)c1ccccc1NC(=O)c1cccc(-n2cnnn2)c1` (stereo not drawn) has an AC50 [1] of over 100 µM.
In the case of `O=[N+]([O-])c1ccccc1CN1CCN(S(=O)(=O)c2ccccc2)CC1`, the AC50 is reported as > 100 µM (inactive).
`COc1ccc(C(=O)N(c2ccccc2)c2nccc3ccccc23)cc1OC` was tested, and the AC50 was > 100 µM (inactive).
`COC(=O)c1ccc(CN2CCCC(CO)(Cc3ccccc3F)C2)cc1` (stereo not drawn) was tested, and the AC50 was > 100 µM (inactive).
`CCCc1nc2cc(C)c(Br)c(C)n2c1CC1CCCCC1` was tested, and the AC50 was > 100 µM (inactive).
`CCOC(=O)C(CC)Sc1cc(C)nc2ccc(OC)cc12` (stereo not drawn) gave an AC50 [1] of over 100 µM.
`CS(=O)(=O)N1CC2CCCN2c2ccc(C(F)(F)F)cc21` (stereo not drawn) was tested, and the AC50 [1] was over 100 µM.
In the case of `O=C(c1cc2cc(F)ccc2[nH]1)N1CCN(Cc2ccc3c(c2)OCO3)CC1`, the AC50 is reported as > 100 µM (inactive) and the AC50 [1] is reported as 20.8 µM.
`CC(C)(CC(=O)O)CC(=O)NCc1c(Cl)cccc1Sc1ccc(Cl)cc1` was tested, and the AC50 [1] was over 100 µM.
Work on `CSc1ccc(CN(C)C(=O)C(c2ccccc2)c2ccccc2)cc1` yielded an AC50 [1] of over 100 µM.
For `Cc1nc(-c2ccc([N+](=O)[O-])cc2)c(-c2ccccc2)o1`, the AC50 was > 100 µM (inactive) and the AC50 [1] was over 100 µM.
